Key:
human SLC5A8 [1] = molecular target: T1, human SLC5A8 (Homo sapiens, UniProt Q8N695, F251V/V193I); test: Two-microelectrode voltage clamp of substrate-induced currents in SLC5A8-expressing oocytes; assay type: cell-based; settings: for K0.5 for SLC5A8: Na+ 100 mM, four oocytes
T1 construct: We amplified the coding region of SLC5A8 mRNA by RT-PCR using human intestinal mRNA as the template; expressed in transfected cells; host or cells: Xenopus laevis oocytes, 50 ng capped cRNA from the pGH19 construct
T1 sequence (Q8N695 1-610 V193I/F251V): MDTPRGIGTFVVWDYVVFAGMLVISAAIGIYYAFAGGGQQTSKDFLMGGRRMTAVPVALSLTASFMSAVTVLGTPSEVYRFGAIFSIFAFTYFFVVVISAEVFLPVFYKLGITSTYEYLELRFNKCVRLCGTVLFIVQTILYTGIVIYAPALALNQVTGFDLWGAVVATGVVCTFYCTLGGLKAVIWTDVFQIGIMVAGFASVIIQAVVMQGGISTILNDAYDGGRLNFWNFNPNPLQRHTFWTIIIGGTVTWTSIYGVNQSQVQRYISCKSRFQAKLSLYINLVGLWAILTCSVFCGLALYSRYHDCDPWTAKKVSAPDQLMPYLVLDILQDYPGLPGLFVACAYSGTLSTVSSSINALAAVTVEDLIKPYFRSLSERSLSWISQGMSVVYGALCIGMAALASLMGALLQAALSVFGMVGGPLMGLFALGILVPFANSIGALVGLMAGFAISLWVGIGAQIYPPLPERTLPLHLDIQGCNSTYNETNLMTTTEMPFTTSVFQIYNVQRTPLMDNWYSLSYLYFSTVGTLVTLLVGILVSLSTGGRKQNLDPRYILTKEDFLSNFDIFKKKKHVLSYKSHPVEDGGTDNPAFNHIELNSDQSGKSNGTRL
Experimental: (§1) The amplified human SLC5A8 cDNA was expressed heterologously in Xenopus oocytes by cRNA injection. Capped cRNA from SLC5A8 cDNA was synthesized using the mMESSAGE mMACHINE kit (Ambion Inc., Austin, Tex.). Mature oocytes (stage 1V or V) from Xenopus laevis were injected with 50 ng cRNA. Uninjected oocytes served as controls. The oocytes were used for uptake and electrophysiological studies 3-6 days after cRNA injection. Uptake of radiolabeled substrates in uninjected and cRNA-injected oocytes was determined as described previously (Fei, Y. J., et al., (1995) Biochemistry 34, 8744-8751).
(§2) Eight oocytes were used for each uptake measurement. Electrophysiological studies were performed by the two-microelectrode voltage clamp method (11. Wang, H., Fei, et al., (2000) Am. J. Physiol. 278:C1019-C1030; Inoue, K, et al. (2004) Biochem. J. 378:949-957).
Oocytes were perfused with a NaCl-containing buffer (100 mM NaCl, 2 mM KCl, 1 mM MgCl2, 1 mM CaCl2, 3 mM Hepes, 3 mM Mes, and 3 mM Tris, pH 7.5), followed by the same buffer containing different fatty acids. The membrane potential was clamped at −50 mV. The differences between the steady-state currents measured in the presence and absence of substrates were considered as the substrate-induced currents. To investigate the current-membrane potential (I—V) relationship, step changes in membrane potential were applied, each for a duration of 100 ms in 20-mV increments. The kinetic parameter K0.5 (i.e. the substrate concentration necessary for the induction of half-maxima) current) was calculated by fitting the values of the substrate-induced currents to Michaelis-Menten equation. The Na^+-activation kinetics was analyzed by measuring the substrate-specific currents in the presence of increasing concentrations of Na^+. The data were analyzed by the Hill equation to determine the Hill coefficient (h; the number of Na^+ ions involved in the activation process). The kinetic parameters were determined using the computer program Sigma Plot, version 6.0 (SPSS, Inc., Chicago, Ill.). Electrophysiological measurements of substrate-induced currents were repeated at least four times with separate oocytes. The data are presented as means±S.E. of these replicates.
The charge-to substrate transfer ratio was determined for propionate in four different oocytes as described previously (Wang, H., et al. (2000) Am. J. Physiol. 278:C1019-C1030 12. Inoue, K., Fei, Y. J., Zhuang, L., Gopal, E., Miyauchi, S., and Ganapathy, V. (2004) Biochem. J. 378:949-957). The oocytes were perfused with 25 μM propionate (unlabeled plus radiolabeled propionate), and inward currents were monitored over a period of 8-10 min. At the end of the experiment, the amount of propionate transported into the oocytes was calculated by measuring the radioactivity associated with the oocytes. The area within the curve describing the relationship between the time and inward current was integrated to calculate the charge transferred into the oocyte during incubation with propionate. The values for substrate transfer and charge transfer were used to determine the charge to substrate transfer ratio.

human SLC5A8 [2] = molecular target: T1, human SLC5A8; test: Uptake of radiolabeled short-chain fatty acids in Xenopus oocytes injected with SLC5A8 cRNA; assay type: cell-based; design: Uptake, uninjected oocytes / Uptake, cRNA-injected oocytes: unit not given here; settings: 1 h incubation; for Uptake, cRNA-injected oocytes: SLC5A8 cRNA-injected oocytes; for Uptake, uninjected oocytes: uninjected control oocytes
Experimental: as §1, §2
Uptake of short-chain fatty acids in uninjected oocytes and in oocytes injected with SLC5A8 cRNA was measured with 1 h incubation. Concentration of substrates (labeled plus unlabeled) varied in the range of 50-500 μM depending on the specific radioactivity of the substrates. Eight oocytes were used for each uptake measurement. Data represent means±SE.

rat ATB^0,+ [3] = molecular target: T2, rat ATB^0,+ (Rattus norvegicus, UniProt Q334I2); test: Inhibition of ATB0,+-mediated 3H-glycine uptake in HRPE cells expressing cloned rat ATB0,+; assay type: cell-based
T2 sequence (Q334I2 1-640): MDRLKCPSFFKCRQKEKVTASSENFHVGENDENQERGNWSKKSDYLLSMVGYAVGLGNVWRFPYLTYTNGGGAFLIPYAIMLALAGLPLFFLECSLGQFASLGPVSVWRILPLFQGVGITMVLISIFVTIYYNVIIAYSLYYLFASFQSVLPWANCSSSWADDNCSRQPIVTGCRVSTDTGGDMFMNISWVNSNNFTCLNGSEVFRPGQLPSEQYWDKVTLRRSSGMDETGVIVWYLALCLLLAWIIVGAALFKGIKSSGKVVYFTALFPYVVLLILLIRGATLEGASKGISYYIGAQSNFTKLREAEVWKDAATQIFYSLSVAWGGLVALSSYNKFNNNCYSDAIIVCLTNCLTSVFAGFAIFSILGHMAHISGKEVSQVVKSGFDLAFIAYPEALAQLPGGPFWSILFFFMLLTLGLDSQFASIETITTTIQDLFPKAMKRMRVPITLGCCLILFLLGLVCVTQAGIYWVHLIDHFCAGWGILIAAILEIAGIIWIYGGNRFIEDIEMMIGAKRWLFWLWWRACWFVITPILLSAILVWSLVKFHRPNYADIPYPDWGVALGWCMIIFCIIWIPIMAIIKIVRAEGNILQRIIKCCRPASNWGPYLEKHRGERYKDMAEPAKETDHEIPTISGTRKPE

rat ATB^0,+ [4] = molecular target: T2, rat ATB^0,+; test: Substrate-induced inward currents in Xenopus oocytes expressing rat ATB0,+ (voltage clamp); assay type: cell-based; settings: voltage clamp
Experimental: Experiments with HRPE cells were repeated at least three times with three independent transfections and transport measurements made in duplicate in each experiment. Electrophysiological measurements of substrate-induced currents were repeated at least three times with separate oocytes. The data are presented as means±S.E.M. of these replicates. The kinetic parameters, Michaelis constant (Kt) and maximal velocity (Vmax) were calculated by fitting the ATB^0,+-specific transport data to the Michaelis-Menten equation describing a single saturable transport system. Na^+ and Cl^−-activation kinetics were analyzed by fitting the ATB^0,+-specific transport data to the Hill equation for the determination of K0.5 values for Na^+ and Cl^− (concentration of Na^+ and Cl^− necessary for half-maximal activation) and the Hill coefficient (nH; the number of Na^+ or Cl^− ions involved in the activation process). The kinetics parameters were first determined by non-linear regression methods and subsequently confirmed by linear regression methods using the commercially-available computer program SigmaPlot, version 6.0 (SPSS Inc., Chicago, Ill., US).
Therefore, it was necessary to determine whether or not the α-carboxyl esters of neutral amino acids are transportable substrates for ATB^0,+. For this purpose, we used the X. laevis oocyte expression system. Cloned rat ATB^0,+ was functionally expressed in oocytes by injection of corresponding cRNA, and the transport of substrates via the transporter was monitored by inward currents when the oocytes were exposed to putative substrates under voltage-clamp conditions.

SW480 = SW480 cells; cited from earlier work

Compound: CCCCC(=O)O [pentanoate]
- Relative magnitude of substrate-induced currents (human SLC5A8 [1]; 5 mM, -50 mV): intermediate

Compound: [I-].[Na+] [NaI]
- Current in SLC5A8 cRNA-injected oocytes (detectable or not) (human SLC5A8 [1]; 5 mM): did not induce any detectable current

Compound: C[C@@H](O)C(=O)O [D-lactate]
- Uptake, cRNA-injected oocytes (human SLC5A8 [2]): 1.090 ± 0.041
- Uptake, uninjected oocytes (human SLC5A8 [2]): 0.028 ± 0.002
- K0.5 for SLC5A8 (human SLC5A8 [1]): 742 ± 330 µM

Compound: CCC(=O)OC[C@H](N)C(=O)O [O-propionyl-L-serine, O-Propionyl-L-Serine]
- IC50 (rat ATB^0,+ [3]): 332 ± 59 µM
- Kt of ATB0,+-mediated glycine transport in the presence of inhibitor (rat ATB^0,+ [3]; 5 mM inhibitor, HRPE cells): 132 ± 37 µM
- Vmax of ATB0,+-mediated glycine transport in the presence of inhibitor (rat ATB^0,+ [3]; 5 mM inhibitor, HRPE cells): 61 ± 13 nmol/10^6 cells/30 minutes
- Inhibition of ATB0,+-mediated glycine transport (in words) (rat ATB^0,+ [3]; 5 mM, HRPE cells): inhibited glycine transport significantly
- Inward currents induced in ATB0,+-expressing oocytes (in words) (rat ATB^0,+ [4]; 5 mM): induced marked inward currents
- K0.5 (substrate concentration for half-maximal current) (rat ATB^0,+ [4]; ATB0,+-expressing oocytes): 305 ± 31 µM

Compound: C[C@H](O)C(=O)O [L-lactate]
- Fold increase of uptake (cRNA-injected over uninjected) (human SLC5A8 [2]): 44.7 fold
- Uptake, cRNA-injected oocytes (human SLC5A8 [2]): 0.402 ± 0.026
- Uptake, uninjected oocytes (human SLC5A8 [2]): 0.009 ± 0.001
- Inward current induced (human SLC5A8 [1]; 5 mM, -50 mV, taken as 100%): 489±94 nA
- K0.5 for SLC5A8 (human SLC5A8 [1]): 235 ± 24 µM

Compound: TGF-α: growth factor used as mitogenic stimulus in SW480 cells
- Cell proliferation (SW480): 37%
- Increase of Na+-dependent arginine transport (SW480): 100%

Compound: EGF: growth factor used as mitogenic stimulus in SW480 cells
- Cell proliferation (SW480): 27%
- Increase of Na+-dependent arginine transport (SW480): 66%

— US8518989B2, “Prodrugs of short-chain fatty acids and treatment methods” (Georgia Health Sciences University Research Institute, Inc., priority 2005, dated 2013)
